Source: paper PMC12856912, “Structure-Guided Semisynthesis of Blasticidin S–Amicetin Chimeras as Selective Ribosome Inhibitors” (Journal of the American Chemical Society, 2026)
Values after ≈ are worked out from the molar mass of the structure shown. Like-named read-outs stand apart in the source and are kept apart here.

What was measured:
[1] = system: Enterococcus faecalis ATCC 29212; assay: Antibacterial MIC assay, serial dilution; type: cell-based; conditions: for Selectivity index (CC50/MIC) E. faecalis 29212: CC50 Vero cells / MIC; for MIC: Enterococcus faecalis, ATCC 29112 / ATCC 29212, 24 h, read-out: MIC E. faecalis ATCC 29112
Experimental: (§1) Media and solutions were autoclaved or sterile filtered prior to use and mani pulations were carri ed out in a laminar flow hood. Antibacterial t esting was performed in polypropylene 96-well flat bottom plates. The minimal inhibitory concentration of blasticidin S (1) hydrochloride, methyl ester (3) trihydrochloride, P10 (2) tri-T FA , phenet hyl amide (4) tri -T FA , an d blastimidines M 19– 22, A, 29–32, P 37–40, and C 43–46 (salt forms as described in the te xt) were assessed against Staphylococcus aureus ΔNorA, S. aureus ATCC 6538P, methicillin-resistant S. aureus (MRSA) ATCC 43300, Enterococcus faecalis ATCC 29212, vancomycin- resistant Enterococcus, Klebsiella pneumoniae ATCC 29665, Pseudomonas aeruginosa,and Acinetobacter baumannii ATCC 17978 using serial dilutions. Doxycycline (Gold Bio) as a positive control and the vehicle as a negative control. Stock solutions of each compound were prepared at 2.56 mg/mL in 50% DMSO/water and serially diluted in 50% DMSO/water to create master plates. From the master plates, 10 μ L o f each dilution was applied to test plates using a Bravo automated liquid transfer system (Agilent).
(§2) Bacteria previously grown overnight (37 °C, 120–200 RPM), in LB broth were diluted to an OD600 of 0.05 in cation-adjusted Mueller-Hinton broth (CAMHB), grown to an OD600 of ~0.5, and diluted to an OD600 of 0.004 in CAMHB . These diluted cultures were applied to the test plates (190 μL per test well) resulting in final concentrations of the test compounds of 128–1 μg/ m L.
(§3) Growth controls (wells with inoculated media but no vehicle or test compounds) were included to assess any potential toxicity from the vehicle. Th e plates were in cubated at 37 °C for 16–18 h, except fo r VRE and E. faecalis, which w ere in cub ated at 37 °C fo r 24 h. Inh ibition was determined by measuring the optical density at 600 nm (OD60 0) with a Cytation 3 pl ate read er (BioTek). The optical density measurem ents were no rmalized to the positive and negative controls and the vehicle and growth controls were compared and found to b e indistinguishable, indicating no toxicity from […]
(§4) the vehicle used. The MIC was the lowest concentration that inhibited >90% of growth. Two biological replicates were performed in duplicate. MIC values are reported as a range from […]

[2] = system: Vancomycin resistant Enterococcus faecium NR-31909 (VRE); assay: Antibacterial MIC assay, serial dilution; type: cell-based; conditions: for Selectivity index (CC50/MIC) VRE NR-31909: CC50 Vero cells / MIC; for MIC: Enterococcus faecium, VRE, 24 h, read-out: MIC Vancomycin resistant Enterococcus faecium NR-31909 (VRE)
Experimental: as §1, §2, §3, §4

[3] = system: Pseudomonas aeruginosa; assay: Antibacterial MIC assay, serial dilution; type: cell-based; conditions: for Selectivity index (CC50/MIC) P. aeruginosa: CC50 Vero cells / MIC; for MIC: Pseudomonas aeruginosa, range from biological replicates, read-out: MIC P. aeruginosa
Experimental: as §1, §2, §3, §4

[4] = system: Acinetobacter baumannii ATCC 17978; assay: Antibacterial MIC assay, serial dilution; type: cell-based; conditions: ATCC17978, range from biological replicates
Experimental: as §1, §2, §3, §4

[5] = system: Klebsiella pneumoniae ATCC 29665; assay: Antibacterial MIC assay, serial dilution; type: cell-based; conditions: for Selectivity index (CC50/MIC) K. pneumoniae: CC50 Vero cells / MIC; for MIC: Klebsiella pneumoniae, ATCC29665, range from biological replicates, read-out: MIC K. pneumoniae ATCC-29665
Experimental: as §1, §2, §3, §4

[6] = system: Escherichia coli BAA-2452; assay: Antibacterial MIC assay, serial dilution; type: cell-based; conditions: BAA2452, read-out: MIC Escherichia coli BAA-2452
[7] = Cytotoxicity assay (MTS/PMS); type: cell-based; conditions: monkey, 24 h treatment, MTS/PMS, average of three biological replicates, read-out: CC50 against Vero cells
Experimental: The potential cytotoxic eff ect of the test compounds was investigated using Vero cells (monkey kidney epitheli al cells) following est ablished protocols.3 Briefly, Vero cells were plated into 96-well plates supplemented with Dulbecco's Modified Eagle Medium (DMEM) containing 10% fetal bovine serum (FBS). The cells were placed in a humidified 37 °C environment for incubation with 5% CO₂ for 24 h to allow proper adherence and growth. Following the incubation period, the culture medium was replaced with fresh DMEM containing serial dilutions of the test compounds, while the v ehicle alon e w as used as a negative control. The treated cells were incubated for an additional 24 h. To assess cell viability, the MTS/PMS reagent was added to each well and incubat ed for 4 h. A microplate reader (S ynergy H1, BioTek, USA) was used to m easure absorbance at 490 nm. Al l experiments wer e cond ucted usingthree biologi cal replicates .
Ta b l e S2. CC50 valuesa (µg/mL) against Vero cells […]
aValues at which the cell viability (normalized to vehicle control) was 50%. […]

[8] = system: Methicillin resistant S. aureus (MRSA) USA300; assay: Antibacterial MIC assay, serial dilution; type: cell-based, Staphylococcus aureus; conditions: for Selectivity index (CC50/MIC) MRSA USA300: CC50 Vero cells / MIC; for MIC: Staphylococcus aureus, read-out: MIC Methicillin resistant S. aureus (MRSA) USA300
[9] = system: Methicillin resistant Staphylococcus epidermidis (MRSE) ATCC 35984 NRS101; assay: Antibacterial MIC assay, serial dilution; type: cell-based; conditions: for Selectivity index (CC50/MIC) MRSE 35984: CC50 Vero cells / MIC; for MIC: Staphylococcus epidermidis, read-out: MIC Methicillin resistant Staphylococcus epidermidis (MRSE) ATCC 35984 NRS101
[10] = system: Vancomycin resistant E. faecalis NR-31972 (VRE); assay: Antibacterial MIC assay, serial dilution; type: cell-based, Enterococcus faecalis; conditions: for Selectivity index (CC50/MIC) VRE NR-31972: CC50 Vero cells / MIC; for MIC: Enterococcus faecalis, VRE, 24 h, read-out: MIC Vancomycin resistant E. faecalis NR-31972 (VRE)
Experimental: as §1, §2, §3, §4

[11] = system: S. aureus ATCC 6538P; assay: Antibacterial MIC assay, serial dilution; type: cell-based, Staphylococcus aureus; conditions: for Selectivity index (CC50/MIC) S. aureus 6538P: CC50 Vero cells / MIC; for MIC: Staphylococcus aureus, ATCC 6538P / ATCC 6539P, read-out: MIC S. aureus ATCC 6539P
Experimental: as §1, §2, §3, §4

[12] = system: MRSA ATCC 43300; assay: Antibacterial MIC assay, serial dilution; type: cell-based, Staphylococcus aureus; conditions: for Selectivity index (CC50/MIC) MRSA 43300: CC50 Vero cells / MIC; for MIC: Staphylococcus aureus, read-out: MIC MRSA ATCC 43300
Experimental: as §1, §2, §3, §4

[13] = system: S. aureus ΔNorA; assay: Antibacterial MIC assay, serial dilution; type: cell-based, Staphylococcus aureus; conditions: for Selectivity index (CC50/MIC) S. aureus ΔNorA: CC50 Vero cells / MIC; for MIC: Staphylococcus aureus, read-out: MIC S. aureus ∆NorA
Experimental: as §1, §2, §3, §4

[14] = Vero cells (monkey kidney epithelial cells)

Structure (SMILES)	Selectivity index (CC50/MIC) E. faecalis 29212 [1]	MIC [1]	Selectivity index (CC50/MIC) VRE NR-31909 [2]	MIC [2]	Selectivity index (CC50/MIC) P. aeruginosa [3]	MIC [3]	MIC [4]	Selectivity index (CC50/MIC) K. pneumoniae [5]	MIC [5]	MIC [6]	Selectivity index (CC50/MIC) MRSA USA300 [8]	MIC [8]	Selectivity index (CC50/MIC) MRSE 35984 [9]	MIC [9]	Selectivity index (CC50/MIC) VRE NR-31972 [10]	MIC [10]	Selectivity index (CC50/MIC) S. aureus 6538P [11]	MIC [11]	Selectivity index (CC50/MIC) MRSA 43300 [12]	MIC [12]	other results
CN(CC[C@H](N)CC(=O)N[C@H]1C=C[C@H](n2ccc(N)nc2=O)O[C@@H]1C(N)=O)C(=N)N [Blastimidine A1, P10, reference compound]	0.2	32 µg/mL (≈ 75.9 µM)	0.2	32 µg/mL (≈ 75.9 µM)	0.1	64 µg/mL (≈ 152 µM)	32 µg/mL (≈ 75.9 µM)	0.2	32 µg/mL (≈ 75.9 µM)	16 µg/mL (≈ 38 µM)	0.4	16 µg/mL (≈ 38 µM)	0.2	32 µg/mL (≈ 75.9 µM)	0.1	64 µg/mL (≈ 152 µM)	0.2	32 µg/mL (≈ 75.9 µM)	0.2	32 µg/mL (≈ 75.9 µM)	CC50 at 24 h [7, 14]: 7 µg/mL (≈ 16.6 µM); Selectivity index (CC50/MIC) S. aureus ΔNorA [13]: 0.1; MIC [13]: 128 µg/mL (≈ 304 µM)
CN(CC[C@H](N)CC(=O)N[C@H]1C=C[C@H](n2ccc(NC(=O)c3ccc(N)cc3)nc2=O)O[C@@H]1C(N)=O)C(=N)N [Blastimidine A2]	1.0	16 µg/mL (≈ 29.6 µM)	1.0	16 µg/mL (≈ 29.6 µM)	<0.1	> 128 µg/mL	> 128 µg/mL	1.0	16 µg/mL (≈ 29.6 µM)	16 µg/mL (≈ 29.6 µM)	1.0	16 µg/mL (≈ 29.6 µM)	0.5	32 µg/mL (≈ 59.2 µM)	0.5	32 µg/mL (≈ 59.2 µM)	1.0	16 µg/mL (≈ 29.6 µM)	1.0	16 µg/mL (≈ 29.6 µM)	CC50 at 24 h [7, 14]: 16 µg/mL (≈ 29.6 µM); Selectivity index (CC50/MIC) S. aureus ΔNorA [13]: 0.5; MIC [13]: 32 µg/mL (≈ 59.2 µM)
CNc1ccc(C(=O)Nc2ccn([C@H]3C=C[C@H](NC(=O)C[C@@H](N)CCN(C)C(=N)N)[C@@H](C(N)=O)O3)c(=O)n2)cc1 [Blastimidine A3]	1.5	16 µg/mL (≈ 28.8 µM)	2.0	8 to 16 µg/mL (≈ 14.4 to 28.8 µM)	<0.2	> 128 µg/mL	> 128 µg/mL	0.8	32 µg/mL (≈ 57.7 µM)	32 µg/mL (≈ 57.7 µM)	3.0	8 µg/mL (≈ 14.4 µM)	1.5	16 µg/mL (≈ 28.8 µM)	0.8	32 µg/mL (≈ 57.7 µM)	2.3	8 to 16 µg/mL (≈ 14.4 to 28.8 µM)	1.5	16 µg/mL (≈ 28.8 µM)	CC50 at 24 h [7, 14]: 24 µg/mL (≈ 43.3 µM); Selectivity index (CC50/MIC) S. aureus ΔNorA [13]: 1.5; MIC [13]: 16 µg/mL (≈ 28.8 µM)
CC(=O)Nc1ccc(C(=O)Nc2ccn([C@H]3C=C[C@H](NC(=O)C[C@@H](N)CCN(C)C(=N)N)[C@@H](C(N)=O)O3)c(=O)n2)cc1 [Blastimidine A4]	2.1	32 µg/mL (≈ 54.9 µM)	2.1	32 µg/mL (≈ 54.9 µM)	<0.5	> 128 µg/mL	> 128 µg/mL	3.2	16 to 32 µg/mL (≈ 27.5 to 54.9 µM)	32 µg/mL (≈ 54.9 µM)	1.1	64 µg/mL (≈ 110 µM)	1.1	64 µg/mL (≈ 110 µM)	1.1	64 µg/mL (≈ 110 µM)	1.1	64 µg/mL (≈ 110 µM)	1.1	64 µg/mL (≈ 110 µM)	CC50 at 24 h [7, 14]: 68 µg/mL (≈ 117 µM); Selectivity index (CC50/MIC) S. aureus ΔNorA [13]: 1.1; MIC [13]: 64 µg/mL (≈ 110 µM)
CN(CC[C@H](N)CC(=O)N[C@H]1C=C[C@H](n2ccc(NC(=O)c3ccc(NC(=O)[C@@](C)(N)CO)cc3)nc2=O)O[C@@H]1C(N)=O)C(=N)N [Blastimidine A5]	1.0	64 µg/mL (≈ 99.7 µM)	2.0	32 µg/mL (≈ 49.9 µM)	<0.5	> 128 µg/mL	> 128 µg/mL	2.0	32 µg/mL (≈ 49.9 µM)	32 µg/mL (≈ 49.9 µM)	0.5	128 µg/mL (≈ 199 µM)	0.5	128 µg/mL (≈ 199 µM)	<0.5	> 128 µg/mL	1.0	64 µg/mL (≈ 99.7 µM)	0.5	128 µg/mL (≈ 199 µM)	CC50 at 24 h [7, 14]: 65 µg/mL (≈ 101 µM); Selectivity index (CC50/MIC) S. aureus ΔNorA [13]: 0.5; MIC [13]: 128 µg/mL (≈ 199 µM)
CN(CC[C@H](N)CC(=O)N[C@H]1C=C[C@H](n2ccc(N)nc2=O)O[C@@H]1C(=O)O)C(=N)N [Blastimidine C1, blasticidin S]	0.6	32 µg/mL (≈ 75.7 µM)	0.1	128 µg/mL (≈ 303 µM)	<0.1	> 128 µg/mL	> 128 µg/mL	0.1	128 µg/mL (≈ 303 µM)	64 µg/mL (≈ 151 µM)	0.1	128 µg/mL (≈ 303 µM)	<0.1	> 128 µg/mL	0.1	128 µg/mL (≈ 303 µM)	<0.1	> 128 µg/mL	<0.1	> 128 µg/mL	CC50 at 24 h [7]: 18 µg/mL (≈ 42.6 µM); Selectivity index (CC50/MIC) S. aureus ΔNorA [13]: <0.1; MIC [13]: > 128 µg/mL
